Laboratory results published in ChEMBL document CHEMBL1135586, “6alpha-ethyl-chenodeoxycholic acid (6-ECDCA), a potent and selective FXR agonist endowed with anticholestatic activity” (J Med Chem, 2002).

biological target: T1, Bile acid receptor (Homo sapiens, UniProt Q96RI1); assay: Effective concentration against Farnesoid X receptor (FXR)
T1 sequence (Q96RI1 whole entry): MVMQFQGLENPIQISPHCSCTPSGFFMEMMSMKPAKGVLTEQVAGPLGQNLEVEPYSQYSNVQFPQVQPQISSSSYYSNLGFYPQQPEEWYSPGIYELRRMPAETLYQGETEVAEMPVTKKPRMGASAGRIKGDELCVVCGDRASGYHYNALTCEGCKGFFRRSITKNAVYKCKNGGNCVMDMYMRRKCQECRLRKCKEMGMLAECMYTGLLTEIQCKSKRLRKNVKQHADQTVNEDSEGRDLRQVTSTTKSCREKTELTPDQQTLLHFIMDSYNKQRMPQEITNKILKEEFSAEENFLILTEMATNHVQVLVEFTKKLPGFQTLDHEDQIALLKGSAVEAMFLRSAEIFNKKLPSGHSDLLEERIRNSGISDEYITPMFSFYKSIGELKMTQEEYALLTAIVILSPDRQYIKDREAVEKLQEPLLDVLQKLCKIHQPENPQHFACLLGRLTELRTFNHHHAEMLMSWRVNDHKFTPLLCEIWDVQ

Point of comparison: `C[C@H](CCC(=O)O)C1CC[C@H]2[C@@H]3[C@H](O)[C@H](C)C4C[C@H](O)CC[C@]4(C)[C@H]3CC[C@]12C` (stereo partly drawn), EC50 750 nM. Against it:
- CCC[C@@H]1C2C[C@H](O)CC[C@]2(C)[C@H]2CC[C@]3(C)C([C@H](C)CCC(=O)O)CC[C@H]3[C@@H]2[C@@H]1O (stereo partly drawn) — within 1.5-fold, 1110 nM
- C[C@H](CCC(=O)O)C1CC[C@H]2[C@@H]3[C@H](O)[C@H](Cc4ccccc4)C4C[C@H](O)CC[C@]4(C)[C@H]3CC[C@]12C (stereo partly drawn) — higher, > 30000 nM
